The record followed here is patent publication US20100081661A1, “HEME OXYGENASE INHIBITORS, SCREENING METHODS FOR HEME OXYGENASE INHIBITORS AND METHODS OF USE OF HEME OXYGENASE INHIBITORS FOR ANTIMICROBIAL THERAPY” (UNIVERSITY OF MARYLAND, BALTIMORE, priority 2006, published 2010).

SMILES strings stand for the structures. pKd: −log10 of the molar value. Read-outs that look alike come from different tables or passages of the source.

The test system of one test is C. elegans. The test is described as follows: C. elegans assay (infected worms). It is filed as in vivo. To be noted: for C. elegans: Table 3A, infected worms.
In test [1] the target is T1, nm-HO (Neisseria meningitidis, UniProt Q9AH50). Kind of test: biochemical. The format is binding.
For another test, the system named is P. aeruginosa. Kind of test: MIC50 for P. aeruginosa. It is filed as cell-based, Pseudomonas aeruginosa. To be noted: for MIC / minimum inhibition conc: Table 2; for MIC: read-out: minimum inhibition conc.
The target of test [2] is T2, pa-HO (Pseudomonas aeruginosa, UniProt O69002). Kind of test: biochemical. The format is binding. Particulars: for pKd: read-out: Fluorescence pa-HO Kd.
Test [3] deals with T1, nm-HO. It is filed as cell-based. Set-up: key to E. coli assay biliverdin pigmentation: + biliverdin observed in cell pellet; − biliverdin not observed.
The next test concerns P. aeruginosa MPA01. The format is cell-based. To be noted: 500 μM and above.
The target of test [4] is T2, pa-HO. It is filed as binding. To be noted: for NMR sat. transfer: Table 2, paHO; for NMR pa-HO: Table 3A.
[5] abbreviates: Pseudomonas aeruginosa, Table 3A, read-out: MIC 50.
The mark [6] stands for this setting: Table 2, colour of cell pellet (white = no biliverdin, green = biliverdin) or toxicity to cells.
[7] abbreviates: Table 3B, nm-HO in E. coli expression system.
The mark [8] stands for this setting: Table 4, target not named, values match nm-HO of Table 3A.
[9] abbreviates: Pseudomonas aeruginosa, Table 3B, P. aeruginosa, read-out: MIC 50.
Wherever NMR pa-HO is given: key: Shows binding by NMR method = +; Ambig = ambiguous.

T2 sequence (O69002 1-198): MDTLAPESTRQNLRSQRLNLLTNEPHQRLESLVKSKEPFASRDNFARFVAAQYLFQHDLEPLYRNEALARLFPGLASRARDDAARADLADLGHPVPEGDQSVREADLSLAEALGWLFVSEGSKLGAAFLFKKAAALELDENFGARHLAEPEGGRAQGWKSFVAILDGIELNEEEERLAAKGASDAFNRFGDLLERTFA
T1 sequence (Q9AH50 1-209): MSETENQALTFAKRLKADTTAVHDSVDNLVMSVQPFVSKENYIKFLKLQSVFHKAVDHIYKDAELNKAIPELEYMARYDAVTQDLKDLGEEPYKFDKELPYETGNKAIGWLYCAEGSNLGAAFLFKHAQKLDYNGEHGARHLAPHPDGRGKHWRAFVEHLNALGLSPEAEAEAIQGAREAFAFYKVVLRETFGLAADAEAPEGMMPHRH

One may read the pKd as the Kd on a negative log10 scale, so that one unit is a factor of ten. In the case of `O=C(O)/C=C\C(=O)Nc1ccc(Nc2ccccc2)cc1` [Compound 75], the C. elegans entry with C. elegans is “no effect”. Further, the values for the pKd on nm-HO [1] and at pa-HO [2] (Table 3A) were 4.81 and 4.70, respectively. Moreover, the MIC with P. aeruginosa (Pseudomonas aeruginosa) is over 1000 µg/mL. In addition, the MIC50 was over 1000 µg/mL with P. aeruginosa (setting [5]) and over 1000 µg/mL against P. aeruginosa (Table 3B, P. aeruginosa). Besides, on pa-HO [2], the fluorescence binding entry is recorded as “yes”. Also, the E. coli assay result is on record as “white pellet” on nm-HO [3] (setting [6]) and “White pellet” at nm-HO [3] (Table 4). Further, the “Biliverdin detection from E. coli Assay” value on nm-HO [3] (Table 3A, pellet colour) was “White pellet”; on nm-HO [3] (setting [7]), “White pellet”.

In the case of `O=C(O)/C=C\C(=O)Nc1ccc(Nc2ccccc2)cc1` [chembridge010392], in the test on P. aeruginosa MPA01, the “inhibitory effect in the presence of Fe(III)-pyoverdine” value is “slight inhibitory effect”.

As for `NCc1ccc2c3c(cccc13)C(=O)N2` [Compound 87], the C. elegans entry in the test on C. elegans is “Inconclusive”. In the test with P. aeruginosa (Pseudomonas aeruginosa), the MIC is over 125 µg/mL. Also, in the test on P. aeruginosa (setting [5]), the MIC50 was over 125 µg/mL. Besides, the “MIC50” value in the test on P. aeruginosa (Table 3B, P. aeruginosa) is over 125 µg/mL. Moreover, at pa-HO [4], the NMR sat. transfer entry is reported as “yes, bind paHO” and the “NMR pa-HO” value is given as “+”.

As to `Cl.N=C(N/N=C\c1cccnc1)N/N=C\c1cccnc1` [Compound 148], the negative logarithm of the Kd (pKd) is 4.91 at nm-HO [1], 4.91 at nm-HO [1] (setting [8]) and 4.80 on pa-HO [2]. The MIC50 in the test with P. aeruginosa (setting [9]) was over 1000 µg/mL. For the same compound, in the test on P. aeruginosa, the minimum inhibition conc result was “no antibacterial activity”. In the test with P. aeruginosa (Table 3A), the “MIC 50 (ug/ml)” value is “no antibact activity”. Also, the fluorescence binding entry on pa-HO [2] is reported as “Alias: CB-31 Compound 1 in manuscript fluorescence binding: yes minimum inhibition conc: no antibacterial activity NMR sat. transfer: E. coli assay: white pellet”. Moreover, the values for the E. coli assay result at nm-HO [3] (setting [6]) and at nm-HO [3] (Table 4) were “white pellet” and “White pellet”, respectively. Moreover, the “Biliverdin detection from E. coli Assay” value is recorded as “White pellet” on nm-HO [3] (Table 3A, pellet colour) and “White pellet” on nm-HO [3] (setting [7]).

For the compound `O=C(Cc1ccc(Cl)cc1)N/N=C/c1c[nH]c2ccccc12` [Compound 126], the pKd is 4.85 on nm-HO [1], 4.85 on nm-HO [1] (setting [8]) and 4.80 at pa-HO [2] (Table 3A). Also, the MIC50 in the test on P. aeruginosa (setting [9]) was over 1000 µg/mL. Moreover, in the test with P. aeruginosa, the minimum inhibition conc entry was “no antibacterial activity”. Besides, the “MIC 50 (ug/ml)” value with P. aeruginosa (Table 3A) is “no antibact activity”. Besides, the fluorescence binding result on pa-HO [2] was “yes”. The results for the E. coli assay entry on nm-HO [3] (setting [6]) and at nm-HO [3] (Table 4) were “white pellet” and “White pellet”, respectively. Further, the “Biliverdin detection from E. coli Assay” value at nm-HO [3] (Table 3A, pellet colour) is “White pellet”; at nm-HO [3] (setting [7]), “White pellet”.

With `CN(C)c1ccc(/C=N/NC(=N)N)cc1` [Compound 1], the C. elegans assay result with C. elegans (Table 2) is given as “yes”. Also, the pKd at nm-HO [1] (Table 3A, read-out: Fluorescence nm-HO Kd) was 4.64; on nm-HO [1] (Table 4, target not named, values match nm-HO of Table 3A, read-out: Kd), 4.64; on pa-HO [2] (Table 3A), 4.52. The MIC in the test on P. aeruginosa (Pseudomonas aeruginosa) was over 160 µg/mL. Also, the MIC50 is over 160 µg/mL with P. aeruginosa (setting [5]) and over 160 µg/mL with P. aeruginosa (Table 3B, P. aeruginosa). Besides, the fluorescence binding result on pa-HO [2] was “yes”. Moreover, on pa-HO [4], the NMR sat. transfer result was “yes, bind paHO”. Moreover, the “NMR pa-HO” value at pa-HO [4] is “+”. Also, the “E. coli assay biliverdin pigmentation” value at nm-HO [3] (E. coli cells expressing nm-HO, cell pellet) is listed as “−”. In addition, the E. coli assay entry is “white pellet” at nm-HO [3] (setting [6]) and “White pellet” at nm-HO [3] (Table 4). For the same compound, the “Biliverdin detection from E. coli Assay” value at nm-HO [3] (Table 3A, pellet colour) is recorded as “White pellet”; on nm-HO [3] (setting [7]), “White pellet”.
